This note sets out measurements from patent US10557124B2, “Compositions and methods for obtaining stem cell derived lung tissue, and related uses thereof” (The Regents of the University of Michigan, priority 2015, dated 2020).

The structures appear in SMILES notation.

Assay [1] relates to anterior foregut endoderm (hESC-derived, ActivinA then NOG/SB). In words: qRT-PCR of SHH, NKX2.1, PAX8 in foregut endoderm monolayer cultures treated with FGF/HH modulators. In kind it is cell-based, human. As to conditions: SAG 1 μM, SU 10 μM. The text has this:
Many signaling pathways are important for lung induction and development (see, e.g., Wong A P, et al., Nat Biotechnol. 2012 Aug. 26; Huang S X L, et al., Nature; 2013 Dec. 1; 1-11; Firth A L, et al., Proceedings of the National Academy of Sciences. 2014 Apr. 29; 111(17):E1723-30; Mou H, et al., Cell Stem Cell. 2012 Apr. 6; 10(4):385-97; Ghaedi M, et al., J. Clin. Invest. 2013 Nov. 1; 123(11):4950-62; Longmire T A, et al., Cell Stem Cell. 2012 Apr. 6; 10(4):398-411; Rankin S A, Zorn A M. Gene Regulatory Networks Governing Lung Specification. J Cell Biochem. 2014 Mar. 19; Morrisey E E, et al., Developmental Cell. Elsevier Inc; 2010 Jan. 19; 18(1):8-23; Min H, et al., Genes & Development. 1998 Oct. 15; 12(20):3156-61; Weaver M, et al., Development. 2000 June; 127(12):2695-704). […] 2011 Feb. 3; 470(7332):105-9; Wells J M, et al., Development. 2014 February; 141(4):752-60; Motoyama J, et al., Nat Genet. 1998 September; 20(1):54-7) and Hh signaling is important for lung mesenchyme proliferation in vivo (see, e.g., Bellusci S, et al., Development. 1997 January; 124(1):53-63). […] It has been reported that approximately 85-95% of cells are endoderm, but a portion of the remaining cells are mesodermal and this small mesodermal population is maintained in the spheroids and organoids (see, e.g., Spence J R, et al., Nature. 2011 Feb. 3; 470(7332):105-9; McCracken K W, et al., Nature; 2014 Oct. 29; 1-19; Green M D, et al., Nat Biotechnol.; 2011 Feb. 27; 1-7) (FIG. 4). Therefore, based on mouse and hPSC studies, it was hypothesized that FGF and/or HH signaling would induce an NKX2.1+ lung lineage in anterior foregut endoderm. To test this hypothesis experiments initially focused on adherent endoderm monolayer cultures to optimize induction conditions. Cultures were treated for 4 days with ActivinA followed by an additional 4 days with NOG/SB (referred to as Foregut). Controls consisted of ActivinA treatment only followed by no additional growth factors (Endoderm controls), or ActivinA followed by NOG/SB, followed by no additional factors (Foregut controls). All experimental groups were compared to both endoderm and foregut controls (FIG. 6). The ability of FGF2 to induce SHH, NKX2.1 and PAX8 was first tested by exposing foregut cultures to low and high concentrations of FGF2 (50,500 ng/mL) (FIG. 6A). […] It was also observed that dual NOG/SB inhibition in endoderm cultures induced robust NKX2.1 and PAX8 expression without adding FGF2 (FIG. 1B, 6A). Thus, it was desired to determine if NKX2.1 expression in foregut cultures was due to endogenous FGF and/or HH signaling. To test this, the FGF or HH pathway was inhibited with small molecules SU5402 (SU, 10 μm) and Sant-2 (10 μm) respectively (FIG. 6B-C). Treating foregut cultures with the FGF inhibitor SU caused a significant, robust reduction in PAX8 and a modest reduction in SHH, while NKX2.1 expression was unchanged compared to foregut control (FIG. 6B). […] To test if HH signaling was able to induce NKX2.1 in foregut cultures, the Smoothened agonist, SAG (1 μM), was added to foregut cultures. The addition of SAG induced a 6.5 fold increase of NKX2.1 expression above foregut controls (FIG. 6D).
This combination caused an additional increase in NKX2.1 expression (21 fold vs. 6.5 fold with SAG only, when compared to foregut) and a concomitant decrease in PAX8 mRNA (FIG. 6D).
(§1) After differentiation into definitive endoderm, foregut endoderm was differentiated, essentially as described (see, e.g., Green M D, et al., Nat Biotechnol. Nature Publishing Group; 2011 Feb. 27; 1-7). Briefly, cells were incubated in foregut media: Advanced DMEM/F12 plus N-2 and B27 supplement, 10 mM Hepes, lx L-Glutamine (200 mM), lx Penicillin-streptomycin (5,000 U/mL, all from Life Technologies) with 200 ng/mL Noggin (NOG, R&D Systems) and 10 μM SB431542 (SB, Stemgent) for 4 days. […]
For orientation: Real-time PCR tracks product formation cycle by cycle.

The test system is the same in assay [2]. In words: Immunofluorescence of NKX2.1 and PAX8 positive cells in foregut monolayer cultures. The format is cell-based, human. Conditions: compared to endoderm and foregut controls. The method, then: Importantly, immunofluorescence correlated with QRT-PCR data showing an increased number of NKX2.1+ cells with the addition of SAG only. […] SAG and SAG+SU treated cells also co-expressed FOXA2 and SOX2 confirming their endodermal origin (FIG. 2).
as §1
HLOs with P63+ cells were counted as having proximal airway-like epithelium and HLOs with SFTPC+ cells were counted as having distal airway-like epithelium. The area of proximal epithelium was determined by P63+ECAD+ staining. Area was measured using ImageJ software. Cell quantification of NKX2.1, P63, and DAPI was counted by Metamorph cell counting software. FOXJ1, SFTPC, and HOPX were counted in ImageJ using the cell counter plugin.

`CNC1CCC(N(Cc2cccc(-c3ccncc3)c2)C(=O)c2sc3ccccc3c2Cl)CC1` (stereo not drawn) [SAG]: the “increase of NKX2.1 expression” value in assay [1] (foregut endoderm treated 8 days, compared to untreated foregut controls) is given as 6.5 fold. In addition, in assay [1] (vs foregut control (FGF2: vs untreated endoderm controls), FGF2 50/500 ng/mL, Sant-2 10 μM), the PAX8 expression entry is on record as “unchanged”. Also, the “NKX2.1+ cells (immunohistochemistry)” value in assay [2] is on record as “more NKX2.1+ cells”.
